# Reference: patent US20250134952A1, “METHODS FOR IMPROVING THE EFFICACY OF HDAC INHIBITOR THERAPY AND PREDICTING THE RESPONSE TO TREATMENT WITH HDAC INHIBITOR” (INSTITUT NATIONAL DE LA SANTÉ ET DE LA RECHERCHE MÉDICALE, priority 2021, published 2025)
# Test system: chromatin remodeling (pericentromeric heterochromatin)
# Experiment: Chromatin remodeling with G9a inhibitor, effect of Tau (data not shown)
# Type: cell-based
compound,measurement,value
COc1cc2nc(N3CCCN(C)CC3)nc(NC3CCN(Cc4ccccc4)CC3)c2cc1OC [BIX 01294],"effect of Tau in preventing chromatin remodeling, compared with trichostatin A",same results
